Reference: patent US8546389B2 (priority 2010, dated 2013)

How the values were obtained:
[1] = target: 1b (BK) NS5bΔ21 (Hepatitis C virus genotype 1b (isolate BK) (HCV), UniProt P26663); experiment: HCV polymerase inhibition assay, genotype 1b; assay type: biochemical, HCV genotype 1b (BK); conditions: 1b (BK) NS5bΔ21, 33P-GTP incorporation; read-out: 1b polymerase IC50 (range class)
Procedure: HCV polymerase reactions were carried out using a modified method of Howe et al., Antimicrobial Agents and Chemotherapy 2004 48(12): 4813-4821. Reactions contained a final concentration of, 0.5% DMSO, 50 nM, 1b (BK) NS5bΔ21, 20 mM Tris-HCl pH 7.5, 5 mM MgCl2, 5 mM MnCl2, 3 mM DTT, 0.05% BSA, 0.2 U/μL RNasin, 10 μg/mL Poly(rC) template, GTP (at Km) and 0.05 μCi/μL ^33P-GTP in a total reaction volume of 50 μL. Compounds were tested in a three fold dilution series, for example starting from 50 μM. Reactions were initiated with the addition of GTP and terminated after 1 hour with 50 μL ice cold 0.2 M EDTA. Terminated reactions were transferred to DEAE 96-well filter plates, unincorporated nucleotides washed from the filters and 50 μL scintillation fluid added prior to reading on a scintillation counter. Similarly, a genotype 3a (VRL-69) NS5bΔ21 polymerase enzyme assay was conducted using essentially the same method.
The compound concentration that reduced ^33P-GTP incorporation by 50% (IC50) was calculated using non-linear regression.

[2] = tested on: genotype 1b (Con 1) subgenomic replicon cell line; experiment: HCV replicon assay, genotype 1b (Renilla luciferase); assay type: cell-based, HCV genotype 1b (Con 1); conditions: Hepatitis C virus; genotype 1b replicon, 72 hours, luciferase; read-out: genotype 1b EC50 (range class)
Procedure: A genotype 1b (Con 1) subgenomic replicon cell line based on Blight et al., Science 2000 290: 1972-1974, modified to express a Renilla luciferase reporter gene was used to assess antiviral activity of test compounds. Cell cultures were maintained in a sub-confluent state in DMEM with glutamine, 10% heat-inactivated foetal bovine serum (FBS) and G418 (Geneticin®).
For assay, cells were seeded at a density of 7000 cells/well into 96 well tissue culture trays in culture media lacking G418. Compounds were tested in a three fold dilution series, for example starting from 50 uM. After 72 hours incubation at 37° C. and 5% CO2, Renilla luciferase activity was quantified via the Promega Renilla Luciferase or Renilla-Glo™ Luciferase Assay Systems (Promega corporation. The same method was employed for replicon assays using subgenomic genotype 1a and 2a replicon cell lines with a seeding cell density of 5000 cells/well for the 2a cell lines.
The compound concentration that reduced luciferase activity by 50% (EC50) was calculated using non-linear regression.

Chain of 1b (BK) NS5bΔ21 (P26663 2420-2989): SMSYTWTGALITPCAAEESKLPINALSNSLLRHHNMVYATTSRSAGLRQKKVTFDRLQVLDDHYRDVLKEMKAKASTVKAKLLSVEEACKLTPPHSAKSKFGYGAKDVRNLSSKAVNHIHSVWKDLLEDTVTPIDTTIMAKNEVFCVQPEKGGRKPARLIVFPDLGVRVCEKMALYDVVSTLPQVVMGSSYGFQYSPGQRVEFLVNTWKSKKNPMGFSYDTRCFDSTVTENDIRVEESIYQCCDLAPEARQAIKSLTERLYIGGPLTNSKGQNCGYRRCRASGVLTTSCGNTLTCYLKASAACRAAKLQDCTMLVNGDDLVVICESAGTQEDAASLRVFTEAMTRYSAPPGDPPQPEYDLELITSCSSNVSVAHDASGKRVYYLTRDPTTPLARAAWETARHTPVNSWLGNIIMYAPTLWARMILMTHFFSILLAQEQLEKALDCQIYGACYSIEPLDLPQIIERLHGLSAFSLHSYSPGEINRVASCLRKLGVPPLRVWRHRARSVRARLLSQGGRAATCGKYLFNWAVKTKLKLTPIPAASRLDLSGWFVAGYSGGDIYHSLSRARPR

| Compound | IC50 [1] [µM] | EC50 [2] [µM] |
| --- | --- | --- |
| CCOC(=O)CCCC(c1cc2nn(-c3ccc(C)cc3)c(C(=O)NC)c2cc1C1CC1)S(C)(=O)=O (racemic) [Compound 85, ethyl 5-[5-cyclopropyl-3-(methylcarbamoyl)-2-(4-methylphenyl)-2H-indazol-6-yl]-5-(methylsulfonyl)pentanoate] | 10 to 50 | 10 to 50 |
| CCC(c1cc2nn(-c3ccc(C)cc3)c(C(=O)NC)c2cc1C1CC1)S(C)(=O)=O (racemic) [Compound 86, 5-cyclopropyl-N-methyl-2-(4-methylphenyl)-6-[1-(methylsulfonyl)propyl]-2H-indazole-3-carboxamide] | 10 to 50 | 1 to 9.99 |
| CNC(=O)c1c2cc(C3CC3)c(N(CCCNC(=O)[C@@H]3CC(=O)N(C)C3)S(C)(=O)=O)cc2nn1-c1ccc(Br)cc1 (racemic) [Compound 182] | < 0.99 | 1 to 9.99 |
| CNC(=O)c1c2cc(C3CC3)c(N([C@H]3CCNC3)S(C)(=O)=O)cc2nn1-c1ccc(Br)cc1 (racemic) [Compound 195] | 1 to 9.99 | 10 to 50 |
| CC[C@H](c1cc2nn(-c3ccc(F)cc3)c(C(=O)NC)c2cc1C1CC1)S(C)(=O)=O (racemic) [Compound 240] | 10 to 50 | 10 to 50 |
| CNC(=O)c1c2cc(C3CC3)c([C@@H]3CN(Cc4ccccc4)C[C@H]3C(C)=O)cc2nn1-c1ccc(Br)cc1 (relative stereo) [Compound 80, trans-6-(4-acetyl-1-benzylpyrrolidin-3-yl)-2-(4-bromophenyl)-5-cyclopropyl-N-methyl-2H-indazole-3-carboxamide] |  | 1 to 9.99 |
| CNC(=O)c1c2cc(C3CC3)c(NS(C)(=O)=O)cc2nn1-c1ccc(Br)cc1 [Compound 1, 2-(4-bromophenyl)-5-cyclopropyl-N-methyl-6-[(methylsulfonyl)amino]-2H-indazole-3-carboxamide] | 10 to 50 | 1 to 9.99 |
| CNC(=O)c1c2cc(C3CC3)c(N(CCO)S(C)(=O)=O)cc2nn1-c1ccc(Oc2ccc(F)cc2)cc1 [Compound 3, 5-cyclopropyl-2-[4-(4-fluorophenoxy)phenyl]-6-[(2-hydroxyethyl)-(methylsulfonyl)amino]-N-methyl-2H-indazole-3-carboxamide] | 1 to 9.99 | < 0.99 |
| CNC(=O)c1c2cc(C3CC3)c(N(CCNC(=O)Cc3nn[nH]n3)S(C)(=O)=O)cc2nn1-c1ccc(Br)cc1 [Compound 8, 2-(4-bromophenyl)-5-cyclopropyl-N-methyl-6-[(methylsulfonyl){2-[(2H-tetrazol-5-ylacetyl)amino]ethyl}amino]-2H-indazole-3-carboxamide] | < 0.99 | 10 to 50 |
| CNC(=O)c1c2cc(OC)c(N(CCO)S(C)(=O)=O)cc2nn1-c1ccc(F)cc1 [Compound 12, 2-(4-fluorophenyl)-6-[2-hydroxyethyl(methylsulfonyl)amino]-5-methoxy-N-methyl-indazole-3-carboxamide] |  | 10 to 50 |
| CNC(=O)c1c2cc(C3CC3)c(N(CCO)S(C)(=O)=O)cc2nn1-c1ccc(F)cc1 [Compound 14, 5-cyclopropyl-2-(4-fluorophenyl)-6-[(2-hydroxyethyl)(methylsulfonyl)amino]-N-methyl-2H-indazole-3-carboxamide] | 10 to 50 | 1 to 9.99 |
| CNC(=O)c1c2cc(C3CC3)c(N(CCOC(=O)c3ccccc3C(=O)O)S(C)(=O)=O)cc2nn1-c1ccc(F)cc1 [Compound 15, 2-[(2-{[5-cyclopropyl-2-(4-fluorophenyl)-3-(methylcarbamoyl)-2H-indazol-6-yl](methylsulfonyl)amino}ethoxy)carbonyl]benzoic acid] | 1 to 9.99 |  |
| CNC(=O)c1c2cc(C3CC3)c(N(CCO)S(C)(=O)=O)cc2nn1-c1ccc(Oc2ccccc2F)cc1 [Compound 18] | 1 to 9.99 | 1 to 9.99 |
| CNC(=O)c1c2cc(C3CC3)c(N(CCO)S(C)(=O)=O)cc2nn1-c1ccc(Nc2ccc(F)cc2)cc1 [Compound 19] | < 0.99 | < 0.99 |
| CCN(c1cc2nn(-c3ccc(Br)cc3)c(C(=O)NC)c2cc1C1CC1)S(C)(=O)=O [Compound 20] | < 0.99 | < 0.99 |
| CCN(c1cc2nn(-c3ccc(Oc4ccc(F)cc4)cc3)c(C(=O)NC)c2cc1C1CC1)S(C)(=O)=O [Compound 23] | < 0.99 | < 0.99 |
| CNC(=O)c1c2cc(C3CC3)c(N(CCO)S(C)(=O)=O)cc2nn1-c1ccc(Br)cc1 [Compound 24] | < 0.99 | < 0.99 |
| CCN(c1cc2nn(-c3ccc(Nc4ccccc4F)cc3)c(C(=O)NC)c2cc1C1CC1)S(C)(=O)=O [Compound 25] | < 0.99 | < 0.99 |

| Compound | IC50 [1] [µM] | EC50 [2] [µM] |
| --- | --- | --- |
| CNC(=O)c1c2cc(C3CC3)c(N(CCO)S(C)(=O)=O)cc2nn1-c1ccc(Nc2ccccc2F)cc1 [Compound 26] | < 0.99 | < 0.99 |
| CNC(=O)c1c2cc(C3CC3)c(N(CCO)S(C)(=O)=O)cc2nn1-c1ccc(Nc2ccccc2)cc1 [Compound 27] | < 0.99 | < 0.99 |
| CNC(=O)c1c2cc(C3CC3)c(N(CCCO)S(C)(=O)=O)cc2nn1-c1ccc(Oc2ccccc2F)cc1 [Compound 29] | < 0.99 | < 0.99 |
| CNC(=O)c1c2cc(C3CC3)c(N(CCCO)S(C)(=O)=O)cc2nn1-c1ccc(Oc2ccc(F)cc2)cc1 [Compound 30] | < 0.99 | < 0.99 |
| CNC(=O)c1c2cc(C3CC3)c(N(CCNC(=O)Cc3nn[nH]n3)S(C)(=O)=O)cc2nn1-c1ccc(Nc2ccc(F)cc2)cc1 [Compound 31] | < 0.99 |  |
| CNC(=O)c1c2cc(C3CC3)c(N(CCO)S(C)(=O)=O)cc2nn1-c1ccc(Nc2cccc(O)c2)cc1 [Compound 33] | 10 to 50 |  |
| CNC(=O)c1c2cc(C3CC3)c(N(CCO)S(C)(=O)=O)cc2nn1-c1ccc(Oc2ccccc2)cc1 [Compound 35] | 1 to 9.99 | < 0.99 |
| CNC(=O)c1c2cc(C3CC3)c(N(CCNC(C)=O)S(C)(=O)=O)cc2nn1-c1ccc(Oc2ccc(F)cc2)cc1 [Compound 36] | 1 to 9.99 | 1 to 9.99 |
| CNC(=O)c1c2cc(C3CC3)c(N(CCNC(C)=O)S(C)(=O)=O)cc2nn1-c1ccc(Br)cc1 [Compound 37] | 1 to 9.99 | 1 to 9.99 |
| CCn1ccnc1-c1cc2nn(-c3ccc(F)cc3)c(C(=O)NC)c2cc1C1CC1 [Compound 84, 5-Cyclopropyl-6-(1-ethyl-1H-imidazol-2-yl)-2-(4-fluorophenyl)-N-methyl-2H-indazole-3-carboxamide] |  | 10 to 50 |
| CNC(=O)c1c2cc(C3CC3)c(N3CCNS3(=O)=O)cc2nn1-c1ccc(Br)cc1 [Compound 103, 2-(4-Bromophenyl)-5-cyclopropyl-6-(1,1-dioxido-1,2,5-thiadiazolidin-2-yl)-N-methyl-2H-indazole-3-carboxamide] | 1 to 9.99 |  |
| CCN(c1cc2nn(-c3ccc(OCC(C)C)cc3)c(C(=O)NC)c2cc1C1CC1)S(C)(=O)=O [Compound 121] | 1 to 9.99 |  |
| CCN(c1cc2nn(-c3ccc(F)cc3)c(C(=O)NC)c2cc1C(C)C)S(C)(=O)=O [Compound 130] |  | 10 to 50 |
| CCN(c1ccc2c(C(=O)NC)n(-c3ccc(F)cc3)nc2c1)S(C)(=O)=O [Compound 137] | 10 to 50 |  |
| CNC(=O)c1c2cc(C3CC3)c(-c3cncn3C)cc2nn1-c1ccc(F)cc1 [Compound 158] | 10 to 50 |  |
| CNC(=O)c1c2cc(C3CC3)c(-c3ncc(CO)s3)cc2nn1-c1ccc(F)cc1 [Compound 159] |  | 10 to 50 |
| CCN(C)S(=O)(=O)c1cc2nn(-c3ccc(F)cc3)c(C(=O)NC)c2cc1C1CC1 [Compound 227] |  | 10 to 50 |
